Test results: ChEMBL document CHEMBL1146569, “The pterocellins, novel bioactive alkaloids from the marine bryozoan Pterocella vesiculosa” (J Nat Prod, 2003)

Legend:
Type in all cases: functional
Pseudomonas aeruginosa = experiment: Antimicrobial activity against Pseudomonas aeruginosa assessed per disk
Candida albicans = experiment: Antimicrobial activity against Candida albicans assessed per disk
MCF7 = experiment: Growth inhibition of human MCF7 cells
Malme-3M = experiment: Growth inhibition of human MALME-3M cells
K562 = experiment: Growth inhibition of human K562 cells
HOP-92 = experiment: Growth inhibition of human HOP92 cells
HCT-15 = experiment: Growth inhibition of human HCT15 cells
A498 = experiment: Growth inhibition of human A498 cells
KM12 = experiment: Growth inhibition of human KM12 cells
U-251 = experiment: Growth inhibition of human U251 cells
MDA-N = experiment: Growth inhibition of human MDA-N cells
TK-10 = experiment: Growth inhibition of human TK10 cells
PC-3 = experiment: Growth inhibition of human PC3 cells
SF-539 = experiment: Growth inhibition of human SF539 cells
HCT-116 = experiment: Growth inhibition of human HCT116 cells
OVCAR-8 = experiment: Growth inhibition of human OVCAR8 cells
EKVX = experiment: Growth inhibition of human EKVX cells
SF-295 = experiment: Growth inhibition of human SF295 cells
UACC-62 = experiment: Growth inhibition of human UACC62 cells
SW-620 = experiment: Growth inhibition of human SW620 cells
A549 = experiment: Growth inhibition of human A549 cells
SK-MEL-28 = experiment: Growth inhibition of human SK-MEL-28 cells
NCI-H226 = experiment: Growth inhibition of human NCI-H226 cells
[1] = read-out: LC50 (the source's name)

## COc1cn2c(cc1=O)C(=O)c1ccnc(Cc3ccccc3)c1-2 [PTEROCELLIN B]
Pseudomonas aeruginosa
  MIC: >60 µg
Candida albicans
  MIC: >60 µg
MCF7
  GI50: 1 µM
  TGI: 3.3 µM
MCF7; [1]
  CC50: > 100 µM
Malme-3M
  GI50: 0.03 µM
  TGI: 0.1 µM
Malme-3M; [1]
  CC50: 0.3 µM
K562
  GI50: 1.2 µM
  LC50 (concentration killing 50% of cells): 4.9 µM
  TGI: 2.4 µM
HOP-92
  GI50: 1.7 µM
  TGI: 3.8 µM
HOP-92; [1]
  CC50: 8.8 µM
HCT-15
  GI50: 0.5 µM
  TGI: 1.8 µM
HCT-15; [1]
  CC50: 4.9 µM
A498
  GI50: 1.9 µM
  TGI: 4 µM
A498; [1]
  CC50: 8.5 µM
KM12
  GI50: 0.6 µM
  TGI: 1.9 µM
KM12; [1]
  CC50: 4.5 µM
U-251
  GI50: 1 µM
  TGI: 2.2 µM
U-251; [1]
  CC50: 4.7 µM
MDA-N
  GI50: 0.2 µM
  TGI: 0.3 µM
MDA-N; [1]
  CC50: 0.6 µM
TK-10
  GI50: 1.5 µM
  TGI: 2.9 µM
TK-10; [1]
  CC50: 5.6 µM
PC-3
  GI50: 1.6 µM
  LC50 (concentration killing 50% of cells): 26.6 µM
  TGI: 5.9 µM
SF-539
  GI50: 1.1 µM
  TGI: 2.7 µM
SF-539; [1]
  CC50: 6.4 µM
HCT-116
  GI50: 0.5 µM
  LC50: 4 µM
  TGI: 1.6 µM
OVCAR-8
  GI50: 0.7 µM
  TGI: 7.6 µM
OVCAR-8; [1]
  CC50: 84.8 µM
EKVX
  GI50: 1.4 µM
  TGI: 3.8 µM
EKVX; [1]
  CC50: 10.7 µM
SF-295
  GI50: 0.3 µM
  LC50 (concentration killing 50% of starting cells): 4 µM
  TGI: 1.6 µM
UACC-62
  GI50: 0.2 µM
  LC50 (50% cell kill): 4.1 µM
  TGI: 0.6 µM
SW-620
  GI50: 0.7 µM
  LC50 (concentration killing 50% of cells): 4.9 µM
  TGI: 2 µM
A549
  GI50: 0.2 µM
  LC50 (50% cell kill concentration): 1.8 µM
  TGI: 0.5 µM
SK-MEL-28
  GI50: 1 µM
  TGI: 2.6 µM
SK-MEL-28; [1]
  CC50: 6.7 µM
NCI-H226
  GI50: 1.4 µM
